From ChEMBL document CHEMBL1201862, “PubChem BioAssay data set” (2004)
The source made the active and inactive calls.

Legend:
[1] = test system: Streptococcus sp. 'group A'; experiment: Streptococcus pyogenes SK(-)GAS viability under kanamycin – luminescence, BacTiterGlo, confirmation, counter-screen for streptokinase expression inhibitor project, dose response (AID 1900); format: functional, organism-based
[2] = molecular target: T1, Streptokinase A (Streptococcus pyogenes serotype M1, UniProt P10520); experiment: viability-normalized secreted streptokinase activity reduction – plasminogen activation absorbance, OD405, dose response (AID 1914); format: functional, Streptococcus pyogenes M1 GAS;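 further: secreted streptokinase activity via plasminogen activation per viability signal from cell pellet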
T1 sequence (P10520 whole entry): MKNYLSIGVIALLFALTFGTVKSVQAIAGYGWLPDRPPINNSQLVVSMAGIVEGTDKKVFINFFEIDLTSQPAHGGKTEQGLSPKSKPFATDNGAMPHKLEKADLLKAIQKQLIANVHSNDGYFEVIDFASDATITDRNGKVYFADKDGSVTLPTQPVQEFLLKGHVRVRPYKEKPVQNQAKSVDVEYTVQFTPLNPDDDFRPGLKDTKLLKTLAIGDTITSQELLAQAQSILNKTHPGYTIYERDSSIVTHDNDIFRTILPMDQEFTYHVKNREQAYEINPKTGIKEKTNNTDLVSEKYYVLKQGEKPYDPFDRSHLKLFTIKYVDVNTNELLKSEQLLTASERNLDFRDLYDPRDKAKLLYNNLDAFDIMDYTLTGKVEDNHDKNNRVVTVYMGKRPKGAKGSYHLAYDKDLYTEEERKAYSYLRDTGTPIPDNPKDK

[3] = microbe, parasite or virus in culture; format: functional; details: Mycobacterium tuberculosis
[4] = Luminescence Cell-Based Dose Confirmation HTS to Identify Inhibitors of Polyadenylation.; format: functional
[5] = test system: Streptococcus; experiment: GAS UMAA2166 growth inhibition – luminescence, BacTiterGlo, counter-screen for streptokinase expression inhibitor project, dose response (AID 1915); format: functional, organism-based;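 further: potency for reduction of bacterial viability or growth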
[6] = molecular target: Multidrug resistance protein CDR1 (Candida albicans, UniProt P43071); experiment: inhibition of Nile Red efflux via Candida CDR1 – S. cerevisiae AD1-8u, singleplex, Cherry Pick1 hits, dose response (AID 588606); format: functional
[7] = molecular target: Multidrug resistance protein CDR2 (Candida albicans (strain SC5314 / ATCC MYA-2876) (Yeast), UniProt P78595); experiment: inhibition of Nile Red efflux via Candida CDR2 – S. cerevisiae AD1-8u, singleplex, Cherry Pick1 hits, dose response (AID 588604); format: functional
[8] = molecular target: T2, High affinity choline transporter 1 (Homo sapiens, UniProt Q9GZV3); experiment: human choline transporter blockers, potency – cell-based, 5-point CRC, membrane potential dye, dose response (AID 504840); format: functional
T2 sequence (Q9GZV3 whole entry): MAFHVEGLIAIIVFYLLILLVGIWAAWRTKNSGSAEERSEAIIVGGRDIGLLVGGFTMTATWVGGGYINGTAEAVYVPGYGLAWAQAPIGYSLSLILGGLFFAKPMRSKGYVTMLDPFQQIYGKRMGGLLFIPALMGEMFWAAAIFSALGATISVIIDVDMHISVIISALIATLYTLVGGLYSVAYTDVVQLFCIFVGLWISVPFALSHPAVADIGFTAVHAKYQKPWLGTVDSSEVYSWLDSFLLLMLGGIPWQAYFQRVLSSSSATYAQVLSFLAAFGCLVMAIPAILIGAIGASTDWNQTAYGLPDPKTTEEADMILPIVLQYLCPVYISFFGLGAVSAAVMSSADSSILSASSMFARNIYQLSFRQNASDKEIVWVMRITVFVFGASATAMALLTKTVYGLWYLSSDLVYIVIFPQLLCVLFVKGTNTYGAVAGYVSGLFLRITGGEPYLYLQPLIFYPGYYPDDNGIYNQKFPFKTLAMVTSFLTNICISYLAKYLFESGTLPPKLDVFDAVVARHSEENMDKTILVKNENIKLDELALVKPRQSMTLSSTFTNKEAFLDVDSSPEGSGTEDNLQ

[9] = molecular target: T2, High affinity choline transporter 1; experiment: human choline transporter blockers, potency – cell-based, 10-point CRC, membrane potential dye, dose response (AID 588401); format: functional;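 further: membrane potential dye fluorescence of choline-evoked depolarization via CHT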

Sequence of Multidrug resistance protein CDR2 (P78595 whole entry): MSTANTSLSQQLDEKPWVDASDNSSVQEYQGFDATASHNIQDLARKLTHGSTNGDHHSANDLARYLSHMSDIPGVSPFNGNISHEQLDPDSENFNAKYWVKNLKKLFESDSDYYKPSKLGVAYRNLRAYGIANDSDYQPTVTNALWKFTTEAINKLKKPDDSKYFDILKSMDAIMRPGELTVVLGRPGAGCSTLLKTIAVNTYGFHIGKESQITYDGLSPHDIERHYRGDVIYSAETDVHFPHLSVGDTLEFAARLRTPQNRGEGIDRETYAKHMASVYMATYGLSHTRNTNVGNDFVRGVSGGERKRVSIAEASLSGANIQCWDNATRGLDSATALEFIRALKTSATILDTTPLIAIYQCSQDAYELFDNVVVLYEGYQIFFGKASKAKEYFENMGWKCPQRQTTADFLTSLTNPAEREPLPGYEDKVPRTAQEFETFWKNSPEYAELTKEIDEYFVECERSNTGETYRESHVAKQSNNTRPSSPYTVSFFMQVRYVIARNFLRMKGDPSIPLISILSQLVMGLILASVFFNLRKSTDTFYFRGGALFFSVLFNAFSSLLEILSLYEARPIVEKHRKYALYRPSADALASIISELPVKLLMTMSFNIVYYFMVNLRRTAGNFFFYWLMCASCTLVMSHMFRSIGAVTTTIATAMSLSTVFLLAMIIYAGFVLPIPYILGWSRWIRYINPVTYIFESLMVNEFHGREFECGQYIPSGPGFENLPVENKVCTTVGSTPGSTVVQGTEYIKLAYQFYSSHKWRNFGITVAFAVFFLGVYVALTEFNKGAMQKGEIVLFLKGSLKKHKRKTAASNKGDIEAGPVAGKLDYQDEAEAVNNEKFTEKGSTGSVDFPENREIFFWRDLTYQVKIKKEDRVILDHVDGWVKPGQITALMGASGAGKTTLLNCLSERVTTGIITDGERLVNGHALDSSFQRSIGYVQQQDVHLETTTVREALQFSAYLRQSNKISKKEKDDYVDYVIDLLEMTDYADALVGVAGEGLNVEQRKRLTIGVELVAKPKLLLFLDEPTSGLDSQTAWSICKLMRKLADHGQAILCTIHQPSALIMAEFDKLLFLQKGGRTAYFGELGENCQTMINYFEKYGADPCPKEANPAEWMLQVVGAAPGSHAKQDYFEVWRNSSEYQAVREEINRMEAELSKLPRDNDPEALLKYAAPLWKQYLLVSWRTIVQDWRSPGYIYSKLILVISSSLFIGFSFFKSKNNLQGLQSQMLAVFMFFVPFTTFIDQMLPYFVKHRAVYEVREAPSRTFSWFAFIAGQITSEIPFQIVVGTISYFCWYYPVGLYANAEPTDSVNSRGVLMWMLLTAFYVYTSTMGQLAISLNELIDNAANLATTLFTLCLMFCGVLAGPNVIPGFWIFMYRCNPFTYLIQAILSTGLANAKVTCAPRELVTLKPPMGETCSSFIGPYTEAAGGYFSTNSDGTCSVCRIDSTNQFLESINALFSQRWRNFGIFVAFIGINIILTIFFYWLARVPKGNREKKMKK
Sequence of Multidrug resistance protein CDR1 (P43071 whole entry, looked up): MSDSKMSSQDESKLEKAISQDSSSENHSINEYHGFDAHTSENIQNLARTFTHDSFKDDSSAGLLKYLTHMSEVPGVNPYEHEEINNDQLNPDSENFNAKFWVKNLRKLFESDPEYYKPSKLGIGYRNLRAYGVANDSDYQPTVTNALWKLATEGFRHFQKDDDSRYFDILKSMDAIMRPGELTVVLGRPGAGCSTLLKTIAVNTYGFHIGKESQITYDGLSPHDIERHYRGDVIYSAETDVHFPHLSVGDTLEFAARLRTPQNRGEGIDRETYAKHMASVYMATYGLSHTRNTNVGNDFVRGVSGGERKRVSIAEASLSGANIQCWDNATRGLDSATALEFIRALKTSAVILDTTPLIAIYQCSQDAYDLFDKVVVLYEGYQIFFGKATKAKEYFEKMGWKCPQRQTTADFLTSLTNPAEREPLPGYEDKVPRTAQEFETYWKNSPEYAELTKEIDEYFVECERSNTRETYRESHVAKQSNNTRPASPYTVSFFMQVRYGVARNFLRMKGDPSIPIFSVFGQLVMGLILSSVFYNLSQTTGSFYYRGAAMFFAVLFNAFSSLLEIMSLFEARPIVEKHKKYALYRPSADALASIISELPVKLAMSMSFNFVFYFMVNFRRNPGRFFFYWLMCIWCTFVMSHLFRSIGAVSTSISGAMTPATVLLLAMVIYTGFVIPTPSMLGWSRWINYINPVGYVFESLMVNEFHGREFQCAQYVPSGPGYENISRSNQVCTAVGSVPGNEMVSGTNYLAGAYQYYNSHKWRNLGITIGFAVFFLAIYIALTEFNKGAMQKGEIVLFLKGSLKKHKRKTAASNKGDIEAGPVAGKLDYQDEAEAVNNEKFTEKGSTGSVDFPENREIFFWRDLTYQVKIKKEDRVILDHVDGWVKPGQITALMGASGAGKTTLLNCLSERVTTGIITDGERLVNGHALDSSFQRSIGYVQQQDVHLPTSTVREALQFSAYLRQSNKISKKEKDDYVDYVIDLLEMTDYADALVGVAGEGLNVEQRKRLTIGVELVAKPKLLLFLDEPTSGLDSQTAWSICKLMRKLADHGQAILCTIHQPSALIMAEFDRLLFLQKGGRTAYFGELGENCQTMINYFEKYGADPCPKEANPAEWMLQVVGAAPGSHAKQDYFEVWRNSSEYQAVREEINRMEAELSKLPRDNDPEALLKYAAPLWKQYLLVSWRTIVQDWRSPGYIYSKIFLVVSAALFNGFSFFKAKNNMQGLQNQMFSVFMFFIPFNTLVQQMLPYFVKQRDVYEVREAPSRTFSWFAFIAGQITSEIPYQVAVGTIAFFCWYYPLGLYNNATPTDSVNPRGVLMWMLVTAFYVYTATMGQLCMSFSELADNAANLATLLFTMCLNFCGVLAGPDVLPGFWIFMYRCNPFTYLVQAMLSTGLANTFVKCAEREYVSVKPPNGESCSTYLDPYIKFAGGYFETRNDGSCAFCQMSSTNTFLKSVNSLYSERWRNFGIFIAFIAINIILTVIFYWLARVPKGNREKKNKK

Compound | EC50 [1] | EC50 [2] | CC50 [3] | EC50 [4] | EC50 [5] | EC50 [6] | EC50 [7] | IC50 [8] | IC50 [9]
CCc1ccc(NC2=NC(=O)/C(=C/c3cc(OC)c(O)c(OC)c3)S2)cc1 | 2.67 µM (active) | > 150 µM (not active) | > 40 µM (active) | 10.5 µM (active) | 28.2 µM (active) | 6.05 µM (active) | 19.2 µM (active) | – | –
Cc1nn2c(N3CCN(CCO)CC3)c3c(nc2c1-c1ccccc1)CCCC3 | – | – | – | – | – | – | – | 6.95 µM (active) | 4.74 µM (active)
